Reference: US8183247B2, “Boron compounds useful in BNCT” (Hammercap AB, priority 2005, dated 2012)

Columns and labels:
[1] = test system: human glioma cell line U343mga; experiment: Cell uptake of boronated compounds (boron content by DCP-AES); type: cell-based; details: U343mga cells, 6 hours incubation, 5×10^−4 M boron; for Boron content expressed as a function of total cell protein, Trial 1: trial 1: 7.2 μg boron/ml culture medium; for Boron content expressed as a function of total cell protein, Trial 2: trial 2: 7.7 μg boron/ml culture medium
Protocol: (§1) Four different tumour cell lines of human origin, including human glioma cell line U343mga, human hepatocarcinoma cell line Hep3B, human breast adenocarcinoma cell line MCF7 and human sarcoma cell line 4SS, were used for in vitro testing of the purified material from Example 3 (hereinafter designated as BF). Cells were plated on non-coated tissue culture plastics and cultured at 37° C. in incubators with humidified air, equilibrated with 5% CO2. They were grown in recommended tissue culture medium, supplemented with 10% FCS and PEST (penicillin 100 IU/ml and streptomycin […]). For passage of cells, cells were trypsinized with trypsin-EDTA (0.25% trypsin, 0.02% EDTA in phosphate buffered saline (PBS) without calcium and magnesium).
U343 mga cells were plated on Petri dishes at 75% cell density and incubated with one of boric acid (BA), vitamin B12 conjugated boron (BB), 1-4-dihydroxyboryl-phenylalanine (BPA) or BF dissolved in tissue culture medium for 6 hours. All four boronated compounds were added to and dissolved in the tissue culture medium at equimolar concentrations with respect to the boron content (5×10^−4 M boron). Incubations were stopped by removing the boron-containing tissue culture medium and by adding cold PBS buffer for washing excess of medium from cells. Cells were immediately harvested by scraping them off the plastic dish using a rubber policeman. They were collected in cold PBS and pelleted by centrifugation.
(§2) Cell samples were taken for total protein analysis according to a standard Bradford procedure. Cell pellets were processed for boron analysis by Direct Current Plasma-Atomic Emission Spectroscopy (DCP-AES). Samples (50-130 mg) were digested at 60° C. with sulfuric acid/nitric acid (1/1). Triton X-100 and water added to give a concentrations of 50 mg tissue/ml, 15% total acid v/v and 5% Triton X-100 v/v. The boron concentrations were based on a known reference sample.

[2] = test system: U343mga cells; experiment: Intracellular retention of boron after withdrawal of boron containing medium; type: cell-based, human; details: for Boron content in U343mga cells, 0 hour after withdrawal of boron containing medium / Boron content in U343mga cells, 2 hours after withdrawal of boron containing medium / Boron content in U343mga cells, 7 hours after withdrawal of boron containing medium: 18 hours incubation, 5×10^−4 M boron
Protocol: as §1, §2
U343 mga cells, were plated on Petri dishes at 75% cell density and incubated with one of 1-4-dihydroxyboryl-phenylalanine (BPA) or BF in tissue culture medium for 18 hours. Both boronated compounds were added to the tissue culture medium at equimolar concentrations with respect to the boron content (5×10^−4 M boron). Incubations were stopped by replacing the boron-containing medium with culture medium without boron. Cell samples were harvested at time points 0, 2 and 7 hours where the 0 time point represents immediate after 18 hour incubation of boronated compound.
Cells were washed with cold PBS and harvested by scraping them off the plastic dish using a rubber policeman, collected in cold PBS and pelleted by centrifugation. Cell pellets were analysed for total protein and boron content as described.

[3] = test system: human breast adenocarcinoma cell line MCF7; experiment: BF uptake by different tumor cells: MCF7; type: cell-based; details: 6 hours incubation
Protocol: as §1
as §2, with “sample. […]” for “sample.”

[4] = test system: U343mga; experiment: BF uptake by different tumor cells: U343mga; type: cell-based, human; details: 6 hours incubation
Protocol: as §1
as §2, with “sample. […]” for “sample.”

[5] = test system: tumour cell lines of human origin; experiment: In vitro studies in tumour cell lines: signs of toxicity; type: cell-based; details: Examples 4-6
Protocol: as §1

[6] = test system: human sarcoma cell line 4SS; experiment: BF uptake by different tumor cells: 4SS; type: cell-based; details: 6 hours incubation
Protocol: as §1
as §2, with “sample. […]” for “sample.”

[7] = test system: human hepatocarcinoma cell line Hep3B; experiment: BF uptake by different tumor cells: Hep3B; type: cell-based; details: 6 hours incubation
Protocol: as §1
as §2, with “sample. […]” for “sample.”

Row | Compound | Boron content expressed as a function of total cell protein, Trial 1 [1] | Boron content expressed as a function of total cell protein, Trial 2 [1] | Boron content in U343mga cells, 0 hour after withdrawal of boron containing medium [2] | Boron content in U343mga cells, 2 hours after withdrawal of boron containing medium [2] | Boron content in U343mga cells, 7 hours after withdrawal of boron containing medium [2] | Boron content expressed as a function of total cell protein, Low cell density ([3]; MCF7, 40-50% (low) cell density) | Boron content expressed as a function of total cell protein, High cell density ([3]; MCF7, 90-100% (high) cell density) | Boron content expressed as a function of total cell protein, Low cell density ([4]; 40-50% (low) cell density) | Boron content expressed as a function of total cell protein, High cell density ([4]; 90-100% (high) cell density) | Signs of toxicity in in vitro studies [5] | Boron content expressed as a function of total cell protein, Low cell density ([6]; 40-50% (low) cell density) | Boron content expressed as a function of total cell protein, High cell density ([6]; 90-100% (high) cell density) | Share of the total uptake retained in tumour cells ([2]; 7 hours after total depletion of BF in the culture medium) | Boron content expressed as a function of total cell protein, Low cell density ([7]; 40-50% (low) cell density) | Boron content expressed as a function of total cell protein, High cell density ([7]; 90-100% (high) cell density)
1 | OB(O)O [BA, boric acid] | 8 μg boron/g cell protein |  |  |  |  |  |  |  |  |  |  |  |  |  | 
2 | N[C@@H](Cc1ccc(B(O)O)cc1)C(=O)O [BPA, 1-4-dihydroxyboryl-phenylalanine, reference compound] | 65 μg boron/g cell protein | 38 μg boron/g cell protein | 0.075 μg boron/g cell pellet | 0 μg boron/g cell pellet | 0 μg boron/g cell pellet |  |  |  |  |  |  |  |  |  | 
3 | N^2-(4-{[(2-amino-4-oxo-3,4-dihydropteridin-6-yl)methyl]amino}benzoyl)-N-{3-[(1R,9S)-2,3,4,5,6,7,8,10,11,12-decaborabicyclo[7.2.1]dodec-1-yl]propyl}-α-glutamine and N^2-(4-{[(2-amino-4-oxo-3,4-dihydropteridin-6-yl)methyl]amino}benzoyl)-N-[3-(2,3,4,5,6,7,8,10,11,12-decaborabicyclo[7.2.1]dodec-1-yl)propyl]-L-glutamine [BF] | 560 μg boron/g cell protein | 440 μg boron/g cell protein | 0.79 μg boron/g cell pellet | 0.59 μg boron/g cell pellet | 0.3 μg boron/g cell pellet | 108 μg boron/g cell protein | 169 μg boron/g cell protein | 108 μg boron/g cell protein | 172 μg boron/g cell protein | without any signs of toxicity | 263 μg boron/g cell protein | 367 μg boron/g cell protein | 40% | 171 μg boron/g cell protein | 219 μg boron/g cell protein
